Patent US8613914B2, “Peptidomimetic sulfamide compounds and antiviral uses thereof” (Novartis AG, priority 2009, dated 2013)

Target: HCV NS3-4A serine protease (full-length NS3-4A protein) (Hepatitis C virus genotype 1a (isolate 1) (HCV), UniProt P26664)
Experiment: HCV NS3-4A protease assay
Format: biochemical, HCV genotype 1a
Settings: strain HCV-1, fluorogenic peptide substrate, read-out: Protease assay Ex. 12 IC50
Method: The inhibitory activity of certain compounds of Table A against HCV NS3-4A serine protease is determined in a homogenous assay using the full-length NS3-4A protein (genotype 1a, strain HCV-1) and a commercially available internally-quenched fluorogenic peptide substrate as described by Taliani, M., et al. 1996 Anal. Biochem. 240:60-67, which is incorporated by reference in its entirety.

Sequence of HCV NS3-4A serine protease (full-length NS3-4A protein) (P26664 1027-1657): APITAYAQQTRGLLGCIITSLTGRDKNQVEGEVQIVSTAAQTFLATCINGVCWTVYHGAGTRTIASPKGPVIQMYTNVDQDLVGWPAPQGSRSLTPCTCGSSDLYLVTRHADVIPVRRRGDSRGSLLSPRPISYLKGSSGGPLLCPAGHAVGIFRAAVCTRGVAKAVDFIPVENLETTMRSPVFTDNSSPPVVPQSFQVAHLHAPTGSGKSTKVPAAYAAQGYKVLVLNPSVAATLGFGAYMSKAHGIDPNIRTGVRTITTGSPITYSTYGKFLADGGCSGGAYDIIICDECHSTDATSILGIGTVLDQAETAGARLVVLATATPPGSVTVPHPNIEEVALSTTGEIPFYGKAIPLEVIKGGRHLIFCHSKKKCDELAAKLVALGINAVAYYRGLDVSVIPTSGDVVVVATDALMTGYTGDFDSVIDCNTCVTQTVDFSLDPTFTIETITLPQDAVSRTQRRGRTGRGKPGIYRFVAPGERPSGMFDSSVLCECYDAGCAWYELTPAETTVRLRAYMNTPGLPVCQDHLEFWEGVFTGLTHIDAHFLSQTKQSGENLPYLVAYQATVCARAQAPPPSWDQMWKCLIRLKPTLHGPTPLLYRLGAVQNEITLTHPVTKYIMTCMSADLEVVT
Sequence of HCV NS3-4A serine protease (full-length NS3-4A protein) (P26664 1658-1711 partner): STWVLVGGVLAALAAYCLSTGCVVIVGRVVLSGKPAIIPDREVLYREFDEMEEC

For C=C[C@@H]1C[C@]1(NC(=O)[C@@H]1C[C@@]2(CN1C(=O)[C@@H](NC(=O)[C@@H](NC(=O)[C@@H]1CCCN1CC)C1(C)CCCCC1)C1(C)CCCCC1)C(C)(C)C21CCC1)C(=O)NS(=O)(=O)N(CC)CC [Compound 159, (5R,8S)-N-[(1R,2S)-1-{[(diethylamino)sulfonyl]carbamoyl}-2-vinylcyclopropyl]-7-[(2S)-2-{[(2S)-2-({[(2S)-1-ethylpyrrolidin-2-yl]carbonyl}amino)-2-(1-methylcyclohexyl)acetyl]amino}-2-(1-methylcyclohexyl)acetyl]-10,10-dimethyl-7-azadispiro[3.0.4.1]decane-8-carboxamide], the IC50 was 11 nM.

In the case of [2H]C([2H])([2H])C([2H])([2H])N1CCC[C@H]1C(=O)NC(C(=O)N[C@H](C(=O)N1C[C@]2(C[C@H]1C(=O)N[C@]1(C(=O)NS(=O)(=O)N3CCCC3)C[C@H]1C=C)C(C)(C)C21CCC1)C(C)(C)C)C1CCCCC1 (stereo partly drawn) [Compound 138, (5R,8S)-7-[(2S)-2-{[(2S)-2-cyclohexyl-2-({[(2S)-1-d5-ethylpyrrolidin-2-yl]carbonyl}amino)acetyl]amino}-3,3-dimethylbutanoyl]-10,10-dimethyl-N-{(1R,2S)-1-[(pyrrolidin-1-ylsulfonyl)carbamoyl]-2-vinylcyclopropyl}-7-azadispiro[3.0.4.1]decane-8-carboxamide-d5], the IC50 is reported as 3 nM.

In the case of C=C[C@@H]1C[C@]1(NC(=O)[C@@H]1C[C@@]2(CN1C(=O)[C@@H](NC(=O)[C@@H](NC(=O)[C@@H]1CCCCN1C(C)C)C1CCCCC1)C(C)(C)C)C(C)(C)C21CCC1)C(=O)NS(=O)(=O)N(CC)CCF [Compound 156, (5R,8S)-7-[(2S)-2-{[(2S)-2-cyclohexyl-2-({[(2S)-1-isopropylpiperidin-2-yl]carbonyl}amino)acetyl]amino}-3,3-dimethylbutanoyl]-N-[(1R,2S)-1-({[ethyl(2-fluoroethyl)amino]sulfonyl}carbamoyl)-2-vinylcyclopropyl]-10,10-dimethyl-7-azadispiro[3.0.4.1]decane-8-carboxamide], the IC50 is reported as 1.3 nM.

In the case of C=C[C@@H]1C[C@]1(NC(=O)[C@@H]1C[C@@]2(CN1C(=O)[C@@H](NC(=O)[C@@H](NC(=O)[C@@H]1CCCCN1C(C)C)C1CCCCC1)C1(C)CCOCC1)C(C)(C)C21CCC1)C(=O)NS(=O)(=O)N1CCCC1 [Compound 124, (5R,8S)-7-[(2S)-2-{[(2S)-2-cyclohexyl-2-({[(2S)-1-isopropylpiperidin-2-yl]carbonyl}amino)acetyl]amino}-2-(4-methyltetrahydro-2H-pyran-4-yl)acetyl]-10,10-dimethyl-N-{(1R,2S)-1-[(pyrrolidin-1-ylsulfonyl)carbamoyl]-2-vinylcyclopropyl}-7-azadispiro[3.0.4.1]decane-8-carboxamide], the IC50 is reported as 1.5 nM.

CC[C@@H]1C[C@]1(NC(=O)[C@@H]1C[C@@]2(CN1C(=O)[C@@H](NC(=O)[C@@H](NC(=O)[C@@H]1CCCCN1CC)C1CCCCC1)C(C)(C)C)C(C)(C)C21CCC1)C(=O)NS(=O)(=O)N(CC)CC [Compound 86, (5R,8S)-7-[(2S)-2-{[(2S)-2-cyclohexyl-2-({[(2S)-1-ethylpiperidin-2-yl]carbonyl}amino)acetyl]amino}-3,3-dimethylbutanoyl]-N-[(1R,2R)-1-{[(diethylamino)sulfonyl]carbamoyl}-2-ethylcyclopropyl]-10,10-dimethyl-7-azadispiro[3.0.4.1]decane-8-carboxamide] gave an IC50 of 4.5 nM.

For C=C[C@@H]1C[C@]1(NC(=O)[C@@H]1C[C@@]2(CN1C(=O)[C@@H](NC(=O)[C@@H](NC(=O)[C@H]1CCN1C(C)C)C(C)(C)C)C(C)(C)C)C(C)(C)C21CCC1)C(=O)NS(=O)(=O)N1CCCC1 [Compound 22, (5R,8S)-7-[(2S)-2-{[(2S)-2-({[(2R)-1-isopropylazetidin-2-yl]carbonyl}amino)-3,3-dimethylbutanoyl]amino}-3,3-dimethylbutanoyl]-10,10-dimethyl-N-{(1R,2S)-1-[(pyrrolidin-1-ylsulfonyl)carbamoyl]-2-vinylcyclopropyl}-7-azadispiro[3.0.4.1]decane-8-carboxamide], the IC50 was 95 nM.

Compound C=C[C@@H]1C[C@]1(NC(=O)[C@@H]1C[C@@]2(CN1C(=O)[C@@H](NC(=O)[C@@H](NC(=O)[C@@H]1CCCN1C(C)C)C(C)(C)C)C(C)(C)C)C(C)(C)C21CCC1)C(=O)NS(=O)(=O)N1CCCC1 [Compound 11, (5R,8S)-7-[(2S)-2-{[(2S)-2-({[(2S)-1-isopropylpyrrolidin-2-yl]carbonyl}amino)-3,3-dimethylbutanoyl]amino}-3,3-dimethylbutanoyl]-10,10-dimethyl-N-{(1R,2S)-1-[(pyrrolidin-1-ylsulfonyl)carbamoyl]-2-vinylcyclopropyl}-7-azadispiro[3.0.4.1]decane-8-carboxamide] has an IC50 of 20 nM.

Compound CC[C@@H]1C[C@]1(NC(=O)[C@@H]1C[C@@]2(CN1C(=O)[C@@H](NC(=O)[C@@H](NC(=O)[C@@H]1CCCCN1C(C)C)C1CCCCC1)C(C)(C)C)C(C)(C)C21CCC1)C(=O)NS(=O)(=O)N(CC)CC [Compound 203, (5R,8S)-7-[(2S)-2-{[(2S)-2-cyclohexyl-2-({[(2S)-1-isopropylpiperidin-2-yl]carbonyl}amino)acetyl]amino}-3,3-dimethylbutanoyl]-N-(1-{[(diethylamino)sulfonyl]carbamoyl}-2-ethylcyclopropyl)-10,10-dimethyl-7-azadispiro[3.0.4.1]decane-8-carboxamide] has an IC50 of 8 nM.

For C=C[C@@H]1C[C@]1(NC(=O)[C@@H]1C[C@@]2(CN1C(=O)[C@@H](NC(=O)[C@@H](NC(=O)CN(C)C)C1CCCCC1)C(C)(C)C)C(C)(C)C21CCC1)C(=O)NS(=O)(=O)N1CCCC1 [Compound 200, (5R,8S)-7-{(2S)-2-[(cyclohexyl{[(dimethylamino)acetyl]amino}acetyl)amino]-3,3-dimethylbutanoyl}-10,10-dimethyl-N-{(1R,2S)-1-[(pyrrolidin-1-ylsulfonyl)carbamoyl]-2-vinylcyclopropyl}-7-azadispiro[3.0.4.1]decane-8-carboxamide], the IC50 was 8 nM.

With C=C[C@@H]1C[C@]1(NC(=O)[C@@H]1C[C@@]2(CN1C(=O)[C@@H](NC(=O)[C@@H](NC(=O)CN1CCc3ccccc3C1)C1CCCCC1)C(C)(C)C)C(C)(C)C21CCC1)C(=O)NS(=O)(=O)N1CCCC1 [Compound 177, (5R,8S)-7-[(2S)-2-({cyclohexyl[(3,4-dihydroisoquinolin-2(1H)-ylacetyl)amino]acetyl}amino)-3,3-dimethylbutanoyl]-10,10-dimethyl-N-{(1R,2S)-1-[(pyrrolidin-1-ylsulfonyl)carbamoyl]-2-vinylcyclopropyl}-7-azadispiro[3.0.4.1]decane-8-carboxamide] the IC50 was 25 nM.

With C=C[C@@H]1C[C@]1(NC(=O)[C@@H]1C[C@@]2(CN1C(=O)[C@@H](NC(=O)[C@@H](NC(=O)CC1CCCCO1)C1CCCCC1)C(C)(C)C)C(C)(C)C21CCC1)C(=O)NS(=O)(=O)N1CCCC1 (stereo partly drawn) [Compound 179, (5R,8S)-7-[(2S)-2-({cyclohexyl[(tetrahydro-2H-pyran-2-ylacetyl)amino]acetyl}amino)-3,3-dimethylbutanoyl]-10,10-dimethyl-N-{(1R,2S)-1-[(pyrrolidin-1-ylsulfonyl)carbamoyl]-2-vinylcyclopropyl}-7-azadispiro[3.0.4.1]decane-8-carboxamide] the IC50 was 25 nM.
